# Experimental data from US8188151B2, “Methods for treating diabetes” (Omega Bio-Pharma (I.P.3) Limited, priority 2003, dated 2012).
# Counter-ions that a name gives are not always drawn.
# Tests used:
# [1] = system: glucose transporter (glut4); assay: Glucose transporter (glut4) expression in tissues of GK diabetic rats (Example 2); format: in vivo, rat; conditions: for expression of total glut4 in liver, muscles, adipocytes (in words): GK rats; for glut4 expression, adipocyte, fold changes compared with control level / glut4 expression, liver, fold changes compared with control level / glut4 expression, muscle, fold changes compared with control level: Mean ± STD, GK diabetic rats
# Description: (§1) The 36 GK rats were divided into 4 groups based on body weight (BW) and plasma glucose level. […] All animals were treated at 10:00 for 20 days. […] Plasma glucose concentrations were determined by Glucotrendr2 equipment (Roche Diagnostics, Basel, Switzerland). Plasma insulin concentrations were determined by radioimmunoassay (Insulin RIA Kit, NO:0410, purchased from Shanghai Radioimmunoassay Research Institution). The effects on plasma glucose level are shown in Table 4, the effects on plasma insulin and adiponectin levels are shown in Table 5, and the effects on different tissues are shown in Table 6. The “p” value is the comparison with the control group.
# diabetic patients = assay: Open-label randomized trial in patients with diabetes type II (Example 3); format: in vivo, human
# Description: The cysteamine alone (DC) group was treated with 540 mg/day of cysteamine hydrochloride.
# adiponectin = assay: Adiponectin level in GK diabetic rats (Example 2); format: in vivo, rat; conditions: for Adiponectin: Mean ± STD, DC 22.5 mg/kg BW, Metformin 34 mg/kg BW
# Description: The 36 GK rats were divided into 4 groups based on body weight (BW) and plasma glucose level. Group 1 (control, n=10) was treated with saline by gavage (2 ml/rat) Group 2 (DC, n=6) was treated with cysteamine hydrochloride by gavage (22.5 mg/kg BW in 2 ml tap water); Group 3 (Metformin, Met, n=10) was treated with Metformin by gavage (34 mg/kg BW in 2 ml tap water); Group 4 (Met+DC, n=10) was treated with Metformin 34 mg/kg BW/day in 2 ml tap water for the first 10 days and then was treated with both cysteamine hydrochloride 22.5 mg/kg BW plus Metformin 34 mg/kg BW in 2 ml tap water for the second 10 days. All animals were treated at 10:00 for 20 days.
# (§2) The four groups of animals were kept in the same room (temp 23±3° C., relative humidity 65±1%) in different cages with wire mesh bottoms to reduce coprophagia throughout the experiment. The rats were subjected to fasting overnight from 10:00 pm to 09:30 of the following day before being subjected to a glucose tolerance test. The rats were treated with glucose 2 g/kg BW in 2 ml tap water at 09:30 for the glucose tolerance test and the blood was collected from the tail vein at 0.5, 1, 2, and 3 hours after glucose injection. Plasma glucose concentrations were determined by Glucotrendr2 equipment (Roche Diagnostics, Basel, Switzerland). Plasma insulin concentrations were determined by radioimmunoassay (Insulin RIA Kit, NO:0410, purchased from Shanghai Radioimmunoassay Research Institution). […] The “p” value is the comparison with the control group.
# GK diabetic rats = assay: Glucose tolerance test in GK diabetic rats (Example 2); format: in vivo, rat; conditions: for glucose levels in glucose tolerance test (in words): GK diabetic rats; for Glucose tolerance test, plasma glucose, Fasting / Glucose tolerance test, plasma glucose, 0.5 hour / Glucose tolerance test, plasma glucose, 1 hour / Glucose tolerance test, plasma glucose, 2 hours / Glucose tolerance test, plasma glucose, 3 hours: Mean ± STD, DC 22.5 mg/kg BW, Metformin 34 mg/kg BW by gavage; for Glucose tolerance test, plasma glucose, Fasting: 20 days (combination in second 10 days); for Glucose tolerance test, plasma glucose, 0.5 hour / Glucose tolerance test, plasma glucose, 1 hour / Glucose tolerance test, plasma glucose, 2 hours / Glucose tolerance test, plasma glucose, 3 hours: after glucose 2 g/kg BW, 20 days
# Description: Food and water were provided ad libitum.
# The 36 GK rats were divided into 4 groups based on body weight (BW) and plasma glucose level. […] All animals were treated at 10:00 for 20 days.
# as §2
# Insulin = assay: Plasma insulin by radioimmunoassay in GK diabetic rats (Example 2); format: in vivo, rat; conditions: for Fasting Insulin: Mean ± STD, DC 22.5 mg/kg BW, Metformin 34 mg/kg BW
# Description: as §1
# [2] = system: Goto-Kakizaki Wistar rats (GK rats); assay: Oral glucose tolerance test and starving plasma glucose in GK rats (Example 1); format: in vivo, rat
# Description: Nineteen male Goto-Kakizaki Wistar rats (GK rats) with weights of 300±20 g were kept in steel cages, 3-4 rats per cage. The cages were changed every two days. Indoor temperature and relative humidity was kept at 23±3° C. and 65±1% respectively. Feed and drinking water was provided. GK rats were permitted a one-month period for adaptation.
# One day prior to experimentation, at 17:00, all of the feed was removed from all groups, but not the drinking water. On the second day, at 09:30, starving plasma glucose was measured for all GK rats. At 10:00, glucose tolerance test (2 g/kg BW) was performed and the plasma glucose level was measured as well for all GK rats. On the third day, the GK rats of the control group were orally administered a saline solution (2 ml/rat) and the GK rats in treatment I and II groups were orally administered a solution of Metformin (17 mg/kg body weight (BW), 2 ml once pre day at 09:30). This regimen was performed for the following several days. On the ninth day, starving plasma glucose was measured and oral glucose tolerance test was performed again for all GK rats in all groups.
# On the tenth day, the regimen for the GK rats in the treatment II group was changed to an oral administration of Metformin with cysteamine hydrochloride (Metformin 17 mg/kg BW, cysteamine hydrochloride 15 mg/kg BW) for the following 6 days, while the regimen for the control group and the treatment I group remained unchanged. This regimen was performed for six days.
# Six days following the change in regimen, starving plasma glucose was measured and glucose tolerance tests were performed, and blood and tissue samples were collected (liver, duodenum, pancreas gland, fat, and muscle) for all GK rats in all groups. Blood samples were stored at 4° C. for three hours and centrifuged for ten minutes at 3500 rpm. Then, the serum was collected and stored at −20° C. Tissue samples were placed in liquid nitrogen once collected and then stored in −80° C.
# The glucose tolerance tests that were performed included the steps of starving the GK rats overnight. Next day at 09:30, starving plasma glucose was measured. At 10:00, oral administration of a glucose solution (2 g/kg BW) was performed. Blood samples were collected via tail vein at 0, 0.5, 1, 2, and 3 hours and then performed with the plasma glucose testing equipment.
# [3] = cysteamine hydrochloride 540 mg/day, two months
# [4] = pre-treatment minus post-treatment
# [5] = late-phase, Metformin 17 mg/kg BW, cysteamine hydrochloride 15 mg/kg BW oral for 6 days
# [6] = mid-phase, Treatment I group, 6 days oral Metformin 17 mg/kg BW, glucose 2 g/kg BW
# [7] = mid-phase, Treatment II group (Metformin 17 mg/kg BW only, before cysteamine hydrochloride was added)
smiles,measurement,setting,value
NCCS [cysteamine hydrochloride],"expression of total glut4 in liver, muscles, adipocytes (in words)",[1],significantly increase
same,"glut4 expression, adipocyte, fold changes compared with control level",[1],2.7 ± 1.16 fold
same,"glut4 expression, liver, fold changes compared with control level",[1],3.77 ± 3.15 fold
same,"glut4 expression, muscle, fold changes compared with control level",[1],1.5 ± 0.74 fold
same,C peptide (CP) (in words),diabetic patients,decreases significantly
same,HOMA (Homeostasis Model Assessment) (in words),diabetic patients,decreases significantly
same,blood uric acid (UA) levels (in words),diabetic patients,decreases significantly
same,fasting insulin (FINS) (in words),diabetic patients,decreases significantly
same,insulin-like growth factor 1 (IGF1) (in words),diabetic patients,decreases significantly
same,microalbuminuria (in words),diabetic patients,obvious but not statistically significantly
same,"24 h Microalbuminuria, Post-treatment",diabetic patients; [3],30.97 ± 25.12
same,"FBS (fasting blood sugar), Post-treatment",diabetic patients; [3],8.21 ± 2.43
same,"FCP (C peptide), Post-treatment",diabetic patients; [3],557 ± 119
same,"FINS (fasting insulin), Post-treatment",diabetic patients; [3],13.25 ± 6.36
same,"HOMA (Homeostasis Model Assessment), Post-treatment",diabetic patients; [3],5.43 ± 3.19
same,"IGF, Post-treatment",diabetic patients; [3],44.37 ± 7.28
same,"UA (blood uric acid), Post-treatment",diabetic patients; [3],359 ± 60.16
same,"24 h Microalbuminuria, Paired Difference",diabetic patients; [4],11.77 ± 40.73
same,"FBS, Paired Difference",diabetic patients; [4],−0.69 ± 2.11
same,"FCP, Paired Difference",diabetic patients; [4],182 ± 164
same,"FINS, Paired Difference",diabetic patients; [4],22.14 ± 19.39
same,"HOMA, Paired Difference",diabetic patients; [4],6.51 ± 4.94
same,"IGF, Paired Difference",diabetic patients; [4],4.99 ± 5.12
same,"UA, Paired Difference",diabetic patients; [4],29.5 ± 37.87
same,adiponectin (in words),adiponectin,significantly increased
same,Adiponectin,adiponectin,4318 ± 590 ng/mL
same,glucose levels in glucose tolerance test (in words),GK diabetic rats,did not affect
same,"Glucose tolerance test, plasma glucose, Fasting",GK diabetic rats,5.80 ± 0.36 mmol/L
same,"Glucose tolerance test, plasma glucose, 0.5 hour",GK diabetic rats,16.68 ± 1.1 mmol/L
same,"Glucose tolerance test, plasma glucose, 1 hour",GK diabetic rats,15.68 ± 0.8 mmol/L
same,"Glucose tolerance test, plasma glucose, 2 hours",GK diabetic rats,11.00 ± 0.8 mmol/L
same,"Glucose tolerance test, plasma glucose, 3 hours",GK diabetic rats,8.33 ± 0.64 mmol/L
same,insulin levels (in words),Insulin,did not affect
same,Fasting Insulin,Insulin,22.46 ± 2.65 IU/L
CN(C)C(=N)N=C(N)N [Metformin],"expression of total glut4 in liver, muscles, adipocytes (in words)",[1],"increased, but not significantly"
same,"glut4 expression, adipocyte, fold changes compared with control level",[1],2.14 ± 1.39 fold
same,"glut4 expression, liver, fold changes compared with control level",[1],2.43 ± 1.85 fold
same,"glut4 expression, muscle, fold changes compared with control level",[1],1.38 ± 0.67 fold
same,insulin-like growth factor 1 (IGF1) (in words),diabetic patients,decrease
same,adiponectin (in words),adiponectin,not
same,Adiponectin,adiponectin,3917 ± 416 ng/mL
same,duodenal plasma glucose levels and insulin resistance (in words),"[2]; GK rats, oral administration","to some extent, lowers"
same,"Glucose tolerance test, plasma glucose, 0.5 hour",[2]; [5],12.98
same,"Glucose tolerance test, plasma glucose, 1 hour",[2]; [5],13.42
same,"Glucose tolerance test, plasma glucose, 2 hours",[2]; [5],8.6
same,"Glucose tolerance test, plasma glucose, 3 hours",[2]; [5],6.67
same,"Glucose tolerance test, plasma glucose, Starving",[2]; [5],4.75
same,"Glucose tolerance test, plasma glucose, Starving","[2]; mid-phase, Treatment I group, 6 days oral Metformin 17 mg/kg BW",4.98
same,"Glucose tolerance test, plasma glucose, 0.5 hour",[2]; [6],15.68
same,"Glucose tolerance test, plasma glucose, 1 hour",[2]; [6],15.93
same,"Glucose tolerance test, plasma glucose, 2 hours",[2]; [6],10.55
same,"Glucose tolerance test, plasma glucose, 3 hours",[2]; [6],8.5
same,"Glucose tolerance test, plasma glucose, 0.5 hour",[2]; [7],15.65
same,"Glucose tolerance test, plasma glucose, 1 hour",[2]; [7],15.8
same,"Glucose tolerance test, plasma glucose, 2 hours",[2]; [7],10.55
same,"Glucose tolerance test, plasma glucose, 3 hours",[2]; [7],8.37
same,"Glucose tolerance test, plasma glucose, Starving",[2]; [7],5.03
same,glucose levels in glucose tolerance test (in words),GK diabetic rats,statistically significantly different
same,"Glucose tolerance test, plasma glucose, Fasting",GK diabetic rats,5.53 ± 0.53 mmol/L
same,"Glucose tolerance test, plasma glucose, 0.5 hour",GK diabetic rats,15.24 ± 1.34 mmol/L
same,"Glucose tolerance test, plasma glucose, 1 hour",GK diabetic rats,13.98 ± 0.95 mmol/L
same,"Glucose tolerance test, plasma glucose, 2 hours",GK diabetic rats,9.62 ± 0.83 mmol/L
same,"Glucose tolerance test, plasma glucose, 3 hours",GK diabetic rats,7.71 ± 1.37 mmol/L
same,insulin levels (in words),Insulin,"decreased, but not statistically significant"
same,Fasting Insulin,Insulin,18.75 ± 3.98 IU/L
